In patent US5573772A, “Methods for protecting tissues and organs from ischemic damage” (priority 1994, dated 1996):

Tested on: rabbit heart
Assay: Infarct size in isolated rabbit hearts, A3-receptor mediation of preconditioning, Example 3
Procedure: New Zealand white rabbits of either sex, between 1.4-2.4 kg, were anesthetized with intravenous sodium pentobarbital (30 mg/kg). The neck was opened and a tracheotomy was performed. The rabbits were ventilated with 100% oxygen via a positive pressure respirator (MD industries, Mobile, Ala.). Ventilation rate was 30-35 breaths per minute, and tidal volume was approximately 15 ml. A left thoracotomy was performed in the fourth intercostal space and pericardium was opened to expose the heart. A 2-0 silk suture with an RB taper needle was passed around a branch of the left coronary artery, and the end of the silk were threaded through a small vinyl tube to form a snare. The heads were quickly excised and mounted on a Langendorff apparatus and perfused at constant pressure with Krebs buffer containing (in mM) 118.5 NaCl, 4.7 KCl, 1.2 MgSO4, 1.2 K2 PO4, 24.3 NaHCO3, 2.5 CaCl2 and 10 glucose. […] The temperature of the perfusate was maintained at 37° C. The perfusion pressure was kept at 75 mm Hg. Pacing electrodes were placed on the right atrium and all hearts were paced at 200 beats/minute with pulses of 5 volts and 4 msec duration to keep the heart rate constant. A fluid-filled latex balloon connected to a transducer via PE240 tubing was inserted into the left ventricle. Balloon volume was adjusted to set the left ventricular diastolic pressure at 10 mm Hg at the beginning of the experiment. Total coronary artery flow was measured by timed collection of buffer from the chamber into a graduated cylinder. Regional ischemia was effected by pulling the snare tight and clamping the tube with a hemostat. Global ischemia was performed by clamping the inflow tubing of the Langendorff apparatus. Reperfusion was achieved by releasing the restriction. All hearts were allowed to equilibrate for 20 minutes before the experiments were started. Heart rate (HR), coronary flow (CF) and left ventricular developed pressure (LVDP) were recorded at the point just before and at the end of each treatment with the pacing momentarily turned off. […] The hearts were removed from the Langendorff apparatus, weighed and then frozen. The hearts were cut into 2 mm transverse slices. The slices were thawed and incubated in 1% triphenyl tetrazolium chloride (TTC) in pH 7.4 buffer for 20 minutes at 37° C. TTC reacts with NADH and dehydrogenase enzymes and stains all tissue still having them to a deep red color. […] After staining, the area of infarcted tissue (TTC negative tissue) and the risk zone (area lacking fluorescence under ultraviolet light) in each slice were traced. The area of infarct and risk zone were determined by planimetry of the tracing. The volume of infarcted myocardium and myocardium at risk was then calculated by multiplying the planimetered areas by the slice thickness. The methods utilized in this example are identical to those described in Example 1. All hearts received 30 minutes of regional ischemia as described in Example 1. The control group (n=8) hearts received only 30 minutes of ischemia. Preconditioned (PC) hearts (n=10) received 5 minutes of global ischemia and 10 minutes of reperfusion prior to the regional ischemia. Adenosine (ADO) treated hearts (n=6) received 10 μM adenosine for 5 minutes prior to regional ischemia. APNEA treated hearts (n=6) received 65 μM APNEA for 5 minutes prior to regional ischemia. In groups receiving the nonselective adenosine blocker, 8-SPT, the blocker was included in the perfusate for 15 minutes at 100 μM starting 5 minutes before the exposure of ADO (ADO-SPT group, n=6), or APNEA (APNEA-SPT group, n=6 ) or 5 minutes before and after 5 minutes of preconditioning ischemia (PC-SPT group, n=5). […] For the PC-BW group (n=5), the A3-receptor antagonist, BW A1433, [Linden J, et al., Molecular Pharmacology 44:524-532 (1993)], was administered at a dose of 200 nM in the perfusate for 5 minutes before and 5 minutes after PC ischemia.

Q: Which “Infarct size (of the risk area)” value (ADO 10 μM, 5 minutes, control 32.2±1.5%, PC 8.8±2.3%) does the source give for Nc1ncnc2c1ncn2[C@@H]1O[C@H](CO)[C@@H](O)[C@H]1O [ADO, Adenosine] here?
A: 11.4±2.3%

Q: How did the “Infarct size (of the risk area)” value (APNEA 65 μM (so in the source), 5 minutes, control 32.2±1.5%) turn out when Nc1ccc(CCNc2ncnc3c2ncn3[C@@H]2O[C@H](CO)[C@@H](O)[C@H]2O)cc1 [APNEA, N^6-(2-(4-aminophenyl)ethyl) adenosine] was run?
A: 12.6±2.2%

Q: How did the “Infarct size (of the risk area)” value (DPCPX 200 nM + ADO) turn out when CCCn1c(=O)c2[nH]c(C3CCCC3)nc2n(CCC)c1=O [DPCPX, 8-cyclopentyl-1,3-dipropylxanthine] was run?
A: 14.4±2.8%

Q: What about the “Infarct size (of the risk area)” value (DPCPX 200 nM + APNEA) of the same compound?
A: 8.7±1.7%

Q: And the “Infarct size (of the risk area)” value (DPCPX 200 nM + PC)?
A: 15.6±7.8%

Q: What does the source list for Cn1c(=O)c2[nH]c(-c3ccc(S(=O)(=O)O)cc3)nc2n(C)c1=O [SPT, 8-(p-Sulfophenyl)-theophylline]?
A: Infarct size (of the risk area) (8-SPT 100 μM + ADO): 29.8±3.7%; Infarct size (of the risk area) (8-SPT 100 μM + APNEA): 30.3±3.3%; Infarct size (of the risk area) (8-SPT 100 μM + PC): 33.8±2.7%
